From PMC8008885 (Journal of Enzyme Inhibition and Medicinal Chemistry, 2021)

Test system: H3K9me3 occupancy in promoter regions
Assay: H3K9me3-ChIP sequencing of striatal tissue of YAC128 mice
Assay type: in vivo, mouse
Method: ChIP for H3K9me3 binding to DNA was performed using a CHIP assay kit (Santa Cruz, Dallas, TX) as described previously[21]^,[28]. Striatal tissues from WT, vehicle treated YAC128, and APQ-treated YAC128 mice were crossed-linked with 1% formaldehyde for 20 min at room temperature. Lysates were sonicated for 30 s six times using a Bioruptor (Diagenode Inc., Denville, NJ). After centrifugation, the supernatant was diluted in CHIP dilution buffer and incubated overnight at 4 °C with anti-H3K9me3 antibody. Immune complexes were recovered by the addition of 60 µl of salmon sperm DNA/protein A agarose-50% slurry and incubation at 4 °C for 2 h with rotation. Beads were pelleted and washed with low and high salt buffer followed by LiCl buffer (x3). Immune complexes were eluted by incubation with 500 µl of fresh elution buffer (1% SDS, 0.1 M NaHCO3) and 20 µl of 5 M NaCl. DNA was cleaned by the addition of 500 mM EDTA, 1 M Tris, and proteinase K at 66 °C for 4 h. The DNA solution was extracted with a phenol/chloroform/isoamyl alcohol mixture to remove protein contaminants, followed by precipitation with 100% ethanol. After precipitation, the pellet was washed with 70% ethanol and dissolved in 20 µl DW.
The Model-based Analysis of ChIP-Seq algorithm (MACS; v. 1.4.2) was used to identify regions of H3K9me3 enrichment with the default parameters. The peaks that pass a Poisson p values threshold of 0.1 were used for further analyses[28]^,[42]. In order to obtain reliable regions of enrichment, the regions detected in more than two samples were selected and aligned to define the consensus regions using DiffBind R package (v. 2.4.8)[43]. The reads in the consensus regions were counted and DESeq2 was applied to identify DMRs[44]. The DMRs were defined as p values of ≤.05 and only DMRs in promoter region (≤3 K from transcription start site) were selected.
Among the read peaks, a total of H3K9me3-enriched 71735 sites were commonly detected using MACS in WT, vehicle-treated YAC128, and APQ-treated YAC128 mice (using DiffBind R package). The reads were re-counted in the 71,735 sites (using DESeq2) and the H3K9me3-enriched sites in promoter region (≤3 K), with p values ≤.01 were selected. Then the H3K9me3-enriched sites with 1.5-fold higher in vehicle-treated YAC128 compared to WT and 1.5-fold lower in vehicle-treated YAC128 compared to APQ-treated YAC128 were finally selected.

**Q.** Which results are given for C=CCOc1cccc2nc(N3CCCC3)ccc12 [APQ, 5-allyloxy-2-(pyrrolidin-1-yl)quinoline]?
**A.** number of targets with 1.5-fold decrease of H3K9me3 occupancy (APQ-treated vs vehicle-treated YAC128 mice): 7060; H3K9me3 occupancy in the promoter region (–1 k to –3 kb) (APQ-treated vs vehicle-treated YAC128 mice, pie graph analysis): reduced; Fold(YACEi/YAC) H3K9me3 ChIP occupancy (Gripap1, Promoter (1-2kb), chrX_7787762_7788457, APQ-treated YAC vs YAC mice striatum): -2.38; Fold(YACEi/YAC) (H3K9me3 ChIP peak chr1_71652484_71652752, Apol7d, Promoter (<=1kb)): -3.31; Fold(YACEi/YAC) (H3K9me3 ChIP peak chr1_131908530_131908816, Nucks1, Promoter (1-2kb)): -4.01; Fold(YACEi/YAC) (H3K9me3 ChIP peak chr1_153487828_153488249, Dhx9, Promoter (<=1kb)): -2.43; Fold(YACEi/YAC) (H3K9me3 ChIP peak chr2_5015774_5016013, Mcm10, Promoter (2-3kb)): -3.52; Fold(YACEi/YAC) (H3K9me3 ChIP peak chr3_35666243_35666969, Gm6639, Promoter (<=1kb)): -3.37; Fold(YACEi/YAC) (H3K9me3 ChIP peak chr3_38487666_38488045, Ankrd50, Promoter (2-3kb)): -2.49; Fold(YACEi/YAC) (H3K9me3 ChIP peak chr3_81977204_81977533, Tdo2, Promoter (1-2kb)): -3.71; Fold(YACEi/YAC) (H3K9me3 ChIP peak chr3_92487863_92488097, Sprr1a, Promoter (1-2kb)): -3.63; Fold(YACEi/YAC) (H3K9me3 ChIP peak chr3_101112649_101113010, Ptgfrn, Promoter (2-3kb)): -3.89; Fold(YACEi/YAC) (H3K9me3 ChIP peak chr4_3653408_3653656, 2210414B05Rik, Promoter (2-3kb)): -3.07; Fold(YACEi/YAC) (H3K9me3 ChIP peak chr4_55418287_55418885, Gm12505, Promoter (<=1kb)): -2.83; Fold(YACEi/YAC) (H3K9me3 ChIP peak chr4_73631010_73633171, Gm11236, Promoter (2-3kb)): -3.46; Fold(YACEi/YAC) (H3K9me3 ChIP peak chr4_96141001_96141325, Cyp2j12, Promoter (<=1kb)): -3.49; Fold(YACEi/YAC) (H3K9me3 ChIP peak chr5_147954155_147954429, Mtus2, Promoter (2-3kb)): -3.24; Fold(YACEi/YAC) (H3K9me3 ChIP peak chr6_8194240_8194734, Col28a1, Promoter (1-2kb)): -2.03; Fold(YACEi/YAC) (H3K9me3 ChIP peak chr6_40902902_40903167, Prss58, Promoter (2-3kb)): -3.27; Fold(YACEi/YAC) (H3K9me3 ChIP peak chr6_52209895_52210445, Hoxa6, Promoter (1-2kb)): -2.02; Fold(YACEi/YAC) (H3K9me3 ChIP peak chr6_57158878_57159171, Vmn1r12, Promoter (<=1kb)): -3.18; Fold(YACEi/YAC) (H3K9me3 ChIP peak chr6_82941890_82942092, Sema4f, Promoter (2-3kb)): -3.56; Fold(YACEi/YAC) (H3K9me3 ChIP peak chr6_88462374_88462646, Ruvbl1, Promoter (2-3kb)): -3.04; Fold(YACEi/YAC) (H3K9me3 ChIP peak chr6_116583898_116584203, Olfr215, Promoter (<=1kb)): -2.33; Fold(YACEi/YAC) (H3K9me3 ChIP peak chr7_20869153_20870151, Vmn1r116, Promoter (2-3kb)): -3.02; Fold(YACEi/YAC) (H3K9me3 ChIP peak chr7_28539372_28539811, Sycn, Promoter (1-2kb)): -2.21; Fold(YACEi/YAC) (H3K9me3 ChIP peak chr7_30914737_30915034, Mag, Promoter (<=1kb)): -2.46; Fold(YACEi/YAC) (H3K9me3 ChIP peak chr7_106081077_106081480, Gm8979, Promoter (1-2kb)): -3.34; Fold(YACEi/YAC) (H3K9me3 ChIP peak chr7_108053741_108053948, Olfr479, Promoter (1-2kb)): -2.28; Fold(YACEi/YAC) (H3K9me3 ChIP peak chr7_140154755_140155139, Sprn, Promoter (<=1kb)): -2.42; Fold(YACEi/YAC) (H3K9me3 ChIP peak chr8_67493810_67494076, Nat2, Promoter (<=1kb)): -2.63; Fold(YACEi/YAC) (H3K9me3 ChIP peak chr9_39238856_39239153, Olfr1537, Promoter (<=1kb)): -2.72; Fold(YACEi/YAC) (H3K9me3 ChIP peak chr10_75351156_75351507, Gm5779, Promoter (<=1kb)): -3.41; Fold(YACEi/YAC) (H3K9me3 ChIP peak chr10_78963256_78963630, Olfr1353, Promoter (<=1kb)): -2.79; Fold(YACEi/YAC) (H3K9me3 ChIP peak chr10_85919134_85919418, Prdm4, Promoter (1-2kb)): -2.28; Fold(YACEi/YAC) (H3K9me3 ChIP peak chr10_130212472_130212863, Olfr827, Promoter (1-2kb)): -3.69; Fold(YACEi/YAC) (H3K9me3 ChIP peak chr11_6231887_6232152, Npc1l1, Promoter (1-2kb)): -3.31; Fold(YACEi/YAC) (H3K9me3 ChIP peak chr11_70351943_70352224, Alox15, Promoter (<=1kb)): -2.33; Fold(YACEi/YAC) (H3K9me3 ChIP peak chr14_7570803_7571731, Gm3558, Promoter (2-3kb)): -3.02; Fold(YACEi/YAC) (H3K9me3 ChIP peak chr14_50785599_50785931, Ttc5, Promoter (<=1kb)): -3.3; Fold(YACEi/YAC) (H3K9me3 ChIP peak chr14_51147689_51148262, Rnase1, Promoter (<=1kb)): -2.5; Fold(YACEi/YAC) (H3K9me3 ChIP peak chr14_67860151_67860425, Mir6539, Promoter (<=1kb)): -2.31; Fold(YACEi/YAC) (H3K9me3 ChIP peak chr14_74972279_74972456, Gm4278, Promoter (2-3kb)): -3.57; Fold(YACEi/YAC) (H3K9me3 ChIP peak chr16_17917614_17917958, Gsc2, Promoter (2-3kb)): -3.59; Fold(YACEi/YAC) (H3K9me3 ChIP peak chr17_18913933_18914613, Vmn2r97, Promoter (<=1kb)): -3.35; Fold(YACEi/YAC) (H3K9me3 ChIP peak chr17_33553505_33553673, Myo1f, Promoter (2-3kb)): -3.41; Fold(YACEi/YAC) (H3K9me3 ChIP peak chr17_37114518_37114958, Olfr92, Promoter (2-3kb)): -2.4; Fold(YACEi/YAC) (H3K9me3 ChIP peak chr17_37485182_37485483, H2-M2, Promoter (1-2kb)): -3.71; Fold(YACEi/YAC) (H3K9me3 ChIP peak chr17_47927455_47927829, Foxp4, Promoter (2-3kb)): -2.83; Fold(YACEi/YAC) (H3K9me3 ChIP peak chr19_24902268_24902717, Foxd4, Promoter (<=1kb)): -2.16; Fold(YACEi/YAC) (H3K9me3 ChIP peak chrX_5469564_5470151, Mycs, Promoter (<=1kb)): -2.41; Fold(YACEi/YAC) (H3K9me3 ChIP peak chrX_6399655_6400248, Shroom4, Promoter (<=1kb)): -2.29; Fold(YACEi/YAC) (H3K9me3 ChIP peak chrX_7571434_7571820, Flicr, Promoter (1-2kb)): -4.01; Fold(YACEi/YAC) (H3K9me3 ChIP peak chrX_10118097_10118554, Srpx, Promoter (<=1kb)): -2.46; Fold(YACEi/YAC) (H3K9me3 ChIP peak chrX_10714202_10714657, Mid1ip1, Promoter (2-3kb)): -2.68
